What was measured:
MOLT-4 = assay: Growth inhibition of human MOLT4 cells after 48 hrs by sulforhodamine B assay; format: functional; details: MOLT-4, 48 h
SNB-75 = assay: Growth inhibition of human SNB75 cells after 48 hrs by sulforhodamine B assay; format: functional; details: SNB-75, 48 h
U-251 = assay: Growth inhibition of human U251 cells after 48 hrs by sulforhodamine B assay; format: functional; details: U-251, 48 h
Malme-3M = assay: Growth inhibition of human MALME-3M cells after 48 hrs by sulforhodamine B assay; format: functional
OVCAR-4 = assay: Growth inhibition of human OVCAR4 cells after 48 hrs by sulforhodamine B assay; format: functional; details: OVCAR-4, 48 h
786-0 = assay: Growth inhibition of human 786-0 cells after 48 hrs by sulforhodamine B assay; format: functional; details: 786-0, 48 h
ACHN = assay: Growth inhibition of human ACHN cells after 48 hrs by sulforhodamine B assay; format: functional
UO-31 = assay: Growth inhibition of human UO31 cells after 48 hrs by sulforhodamine B assay; format: functional; details: UO-31, 48 h
BT-549 = assay: Growth inhibition of human BT549 cells after 48 hrs by sulforhodamine B assay; format: functional; details: BT-549, 48 h
T47D = assay: Growth inhibition of human T47D cells after 48 hrs by sulforhodamine B assay; format: functional
HL-60 [1] = assay: Antitumor activity against human HL60 cells xenografted athymic nude mouse at 25 mg/kg, sc administered QD for 10 days relative to control; format: functional; details: route subcutaneous
HL-60 [2] = assay: Antitumor activity against human HL60 cells xenografted athymic nude mouse assessed as delay in tumor growth time at 25 mg/kg, sc administered QD; format: functional; details: route subcutaneous
Mus musculus [3] = assay: Toxicity in human HL60 cells xenografted athymic nude mouse assessed as mortality at 50 mg/kg, sc administered QD for 10 days; format: organism-based, HL-60; design: dose 50 mg/kg, route subcutaneous; details: in vivo, 240 h
Mus musculus [4] = assay: Toxicity in human HL60 cells xenografted athymic nude mouse assessed as mortality at 25 mg/kg, sc administered QD for 10 days; format: organism-based, HL-60; design: dose 25 mg/kg, route subcutaneous; details: in vivo, 240 h
Mus musculus [5] = assay: Toxicity in human HL60 cells xenografted athymic nude mouse assessed as body weight loss at 25 mg/kg, sc administered QD for 10 days relative to control; format: organism-based, HL-60; design: dose 25 mg/kg, route subcutaneous; details: in vivo, 240 h
HUVEC [6] = assay: Antiangiogenic activity against HUVEC assessed as growth inhibition by NCI antiangiogenesis assay; format: functional, cell-based; details: Homo sapiens
HUVEC [7] = assay: Antiangiogenic activity against HUVEC assessed as inhibition of VEGF-induced cell migration by NCI antiangiogenesis assay; format: functional, cell-based; details: Homo sapiens
HUVEC [8] = assay: Antiangiogenic activity against HUVEC assessed as inhibition of capillary-like structure formation by NCI antiangiogenesis assay; format: functional, cell-based; details: Homo sapiens
Plasmodium falciparum = assay: Antimalarial activity after 72 hrs against chloroquine-resistant Plasmodium falciparum W2 infected erythrocytes by LDH assay; format: functional, organism-based; details: W2, 72 h
HOP-62 = assay: Growth inhibition of human HOP62 cells after 48 hrs by sulforhodamine B assay; format: functional; details: HOP-62, 48 h
NCI-H460 = assay: Growth inhibition of human NCI-H460 cells after 48 hrs by sulforhodamine B assay; format: functional; details: NCI-H460, 48 h
[9] = Selectivity index, ratio of TC50 for african green monkey (Cercopithecus aethiops) Vero cells to IC50 for chloroquine-sensitive Plasmodium falciparum D6; format: toxicity, cell-based
[10] = Cytotoxicity against african green monkey Vero cells after 48 hrs by neutral red assay; format: cell-based; details: chlorocebus sabaeus, read-out: TC50
Leishmania donovani = assay: Antileishmanial activity against Leishmania donovani promastigotes after 48 hrs by alamar-blue assay; format: functional, organism-based
HL-60 [11] = assay: Antitumor activity against human HL60 cells xenografted athymic nude mouse at 50 mg/kg, sc administered QD for 10 days relative to control; format: functional; details: route subcutaneous
HL-60 [12] = assay: Antitumor activity against human HL60 cells xenografted athymic nude mouse assessed as delay in tumor growth time at 50 mg/kg, sc administered QD; format: functional; details: route subcutaneous
Mus musculus [13] = assay: Toxicity in human HL60 cells xenografted athymic nude mouse assessed as body weight loss at 50 mg/kg, sc administered QD for 10 days relative to control; format: organism-based, HL-60; design: dose 50 mg/kg, route subcutaneous; details: in vivo, 240 h

| Compound | GI50 (MOLT-4) | GI50 (SNB-75) | GI50 (U-251) | GI50 (Malme-3M) | GI50 (OVCAR-4) | GI50 (786-0) | GI50 (ACHN) | GI50 (UO-31) | GI50 (BT-549) | GI50 (T47D) | IC50 (HUVEC [6]) | IC50 (HUVEC [7]) | IC50 (HUVEC [8]) | IC50 (Plasmodium falciparum) | GI50 (HOP-62) | GI50 (NCI-H460) | selectivity ratio [9] | CC50 at 48 h [10] | IC50 (Leishmania donovani) | IC90 (Leishmania donovani) | further results |
| --- | --- | --- | --- | --- | --- | --- | --- | --- | --- | --- | --- | --- | --- | --- | --- | --- | --- | --- | --- | --- | --- |
| C[C@H]1[C@@H](OCC(CO[C@H]2O[C@@H]3O[C@@]4(C)CC[C@H]5[C@H](C)CC[C@@H]([C@H]2C)[C@@]35OO4)OC(=O)CCC(=O)O)O[C@@H]2O[C@@]3(C)CC[C@H]4[C@H](C)CC[C@@H]1[C@@]24OO3 (some centres not stated) | 0.29 µM | 22.1 µM | < 0.01 µM | 4.05 µM | 0.058 µM | 0.023 µM | 0.126 µM | 0.355 µM | 0.724 µM | < 0.01 µM | 56 µM | 45.3 µM | 45.8 µM | 2.1 µM | 0.086 µM | 0.033 µM |  |  |  |  | T/C (HL-60 [1]): 23%; Activity (HL-60 [2]): 30 days; Activity (Mus musculus [3]): Toxic; Activity (Mus musculus [4]): Non-toxic; Activity (Mus musculus [5]): 1% |
| COCC(CO[C@H]1O[C@@H]2O[C@@]3(C)CC[C@H]4[C@H](C)CC[C@@H]([C@H]1C)[C@@]24OO3)O[C@H]1O[C@@H]2O[C@@]3(C)CC[C@H]4[C@H](C)CC[C@@H]([C@H]1C)[C@@]24OO3 (some centres not stated) | 0.027 µM | 22.6 µM | 0.021 µM | 8.13 µM | 5.69 µM | 0.185 µM | 0.189 µM | 0.125 µM | 7.52 µM | 0.014 µM |  |  |  | 4.7 µM | 5.62 µM | 0.081 µM | > 43 | > 745 µM |  |  |  |
| C[C@H]1[C@H](OCCO[C@H]2O[C@@H]3O[C@@]4(C)CC[C@H]5[C@H](C)CC[C@@H]([C@H]2C)[C@@]35OO4)O[C@@H]2O[C@@]3(C)CC[C@H]4[C@H](C)CC[C@@H]1[C@@]24OO3 | 0.015 µM | 0.366 µM | 0.049 µM | 0.235 µM | 0.041 µM | 0.324 µM | 0.224 µM | 0.035 µM | 0.074 µM | 0.016 µM |  |  |  | 21.9 µM | 11.6 µM | 0.046 µM | > 25 | > 800 µM |  |  |  |
| C[C@H]1[C@@H](OCC(=O)CO[C@H]2O[C@@H]3O[C@@]4(C)CC[C@H]5[C@H](C)CC[C@@H]([C@H]2C)[C@@]35OO4)O[C@@H]2O[C@@]3(C)CC[C@H]4[C@H](C)CC[C@@H]1[C@@]24OO3 | < 0.01 µM | 0.015 µM | < 0.01 µM | < 0.01 µM | 0.069 µM | 0.093 µM | 0.026 µM | < 0.01 µM | 0.29 µM | < 0.01 µM | 57 µM | 28.5 µM | > 50 µM | 0.3 µM | 11.9 µM | < 0.01 µM | > 6800 | > 7640 µM | 10.4 µM | 80.3 µM |  |
| C[C@H]1[C@@H](O[C@H]2CC[C@@H](O[C@H]3O[C@@H]4O[C@@]5(C)CC[C@H]6[C@H](C)CC[C@@H]([C@H]3C)[C@@]46OO5)CC2)O[C@@H]2O[C@@]3(C)CC[C@H]4[C@H](C)CC[C@@H]1[C@@]24OO3 | 0.02 µM | 0.03 µM | 0.019 µM | 0.044 µM | 0.024 µM | 0.031 µM | 0.027 µM | 0.018 µM | 0.042 µM | < 0.005 µM | 42 µM | 3.3 µM | 38.8 µM | 8 µM | 12.3 µM | 0.017 µM | > 1590 | > 7340 µM | 7.7 µM | 77.1 µM | T/C (HL-60 [11]): 34%; T/C (HL-60 [1]): 50%; Activity (HL-60 [12]): 36 days; Activity (HL-60 [2]): 8 days; Activity (Mus musculus [3]): Non-toxic; Activity (Mus musculus [4]): Non-toxic; Activity (Mus musculus [13]): 17%; Activity (Mus musculus [5]): 3% |
| C[C@H]1[C@@H](O[C@H]2CC[C@H](O[C@H]3O[C@@H]4O[C@@]5(C)CC[C@H]6[C@H](C)CC[C@@H]([C@H]3C)[C@@]46OO5)CC2)O[C@@H]2O[C@@]3(C)CC[C@H]4[C@H](C)CC[C@@H]1[C@@]24OO3 | 0.099 µM | 0.202 µM | 0.016 µM | 0.071 µM | 0.053 µM | 0.027 µM | 0.042 µM | 0.123 µM | 0.021 µM | < 0.01 µM |  |  |  | 13.3 µM | 0.065 µM | 0.028 µM | 1360 | > 7340 µM | 7.4 µM | 18.5 µM |  |
| C[C@H]1[C@@H](OCC(O)CO[C@@H]2C[C@@H]3CC[C@@H](C)[C@@H]4CC[C@@]5(C)OO[C@@]34[C@H](O2)O5)O[C@@H]2O[C@@]3(C)CC[C@H]4[C@H](C)CC[C@@H]1[C@@]24OO3 (some centres not stated) | 0.298 µM | 8.25 µM |  | 8.82 µM | 0.209 µM | 0.417 µM | 0.248 µM | 0.108 µM | 0.408 µM | 0.027 µM | 77 µM | 1.8 µM | 30.8 µM | 1.2 µM | 13.3 µM |  | > 23800 | > 7620 µM | 5 µM | 16 µM | T/C (HL-60 [11]): 34%; T/C (HL-60 [1]): 68%; Activity (HL-60 [12]): 34 days; Activity (HL-60 [2]): 16 days; Activity (Mus musculus [3]): Non-toxic; Activity (Mus musculus [4]): Non-toxic; Activity (Mus musculus [13]): 5%; Activity (Mus musculus [5]): 2% |
| C[C@H]1[C@@H](OCCO[C@H]2O[C@@H]3O[C@@]4(C)CC[C@H]5[C@H](C)CC[C@@H]([C@H]2C)[C@@]35OO4)O[C@@H]2O[C@@]3(C)CC[C@H]4[C@H](C)CC[C@@H]1[C@@]24OO3 | 0.042 µM | 0.887 µM | 0.267 µM | 0.504 µM | 0.036 µM | 0.305 µM | 0.257 µM | 0.469 µM | 14.3 µM | 0.015 µM |  |  |  | 1.2 µM | 0.107 µM | 0.15 µM | > 48 | > 80 µM |  |  |  |
